Series [1] deals with T1, PI3K p110g (Homo sapiens, UniProt P48736).
T1 construct: purchased Millipore
The series is described as follows: PI3K p110g kinase assay. The class given is biochemical. How it is done: (§1) In the assays described here, p110α-p85 complex and p110γ were acquired from Millipore. Assays were performed with Lα-phosphatidylinositol (Avanti) as described in Knight et al. Nat Protoc. 2007; 2 (10):2459-66. Inhibitor series were prepared 10% DMSO as 5× stocks for the assay. Assays of HsVps34 were performed as described in Knight et al, except that the final assay buffer composition used was changed to 20 mM HEPES 7.5, 100 mM NaCl, 3 mM MgCl, 1 mg/mL PI and 44 nM hvps34 was used in the assay. […] COS-7 cells were cultured in 10 cm dishes and transfected at 70% confluence with 10 μg of plasmid DNA (HA-tagged bovine PI4KIIIβ, HA-tagged human PI4KIIIα) using Lipofectamine 2000 and 5 ml Opti-MEM following the manufacturer's instructions. After 5 hours the transfection medium was replaced with 10 ml complete DMEM. 36 hrs post transfection, cells were washed once with 5 ml PBS (pH 7.4) and lysed in 1 ml of lysis buffer (1) on ice. Lysates were collected by scraping and after 15 min they were centrifuged at 13,000 rpm for 10 min. To the lysates was added 200 μl of protein G Sepharose 4 fast flow beads that were prewashed with PBS and lysis buffer and 2 μg of anti-HA antibody. The tubes were then incubated overnight at 4 degrees C. in a tube rotator. The Sepharose beads in the lysate were washed twice with 150 mM NaCl in RIPA buffer, twice with RIPA buffer and once with kinase buffer (50 mM Tris/HCl, pH 7.5, 20 mM MgCl2, 1 mM EGTA, 1 mM PtdIns, 0.4% Triton X-100, 0.5 mg/mL BSA) and finally the beads were resuspended in 200 μL kinase buffer. Kinase reactions were run in a mixture of 45 μL of PI buffer (1 mM PI in kinase buffer), 10 μL of immunoprecipitated beads, 2 µL of inhibitors (dissolved and diluted in DMSO) or DMSO and 5 μL of [γ-^32P]-ATP (1 mM and 2 μCi/tube). The immunoprecipitates in PI buffer were pre-incubated with the drugs for 20 min prior the initiation of kinase reaction by adding ATP and the reactions were carried out for 30 min in 15 ml polypropolyne tubes. Reactions were terminated by addition of 3 ml of CHCl3:CH3OH:HCl (200:100:0.75) followed by 0.6 ml of 0.6N HCl to induce phase separation. The mixtures were vortexed, centrifuged at 2000 rpm for 2 min and the upper phase was discarded. To the lower phase was added 1.5 ml of CHCl3:CH3OH:0.6N HCl (3:48:47) and the mixture vortexed and centrifuged at 2000 rpm for 2 min. The lower phase was then transferred to counting vials and evaporated. Samples were counted in a scintillation beta counter after adding 5 ml of Instafluor (Perkin-Elmer).
(§2) PI-kinase assay: Compounds are tested in C.1.1. PI kinase assays as described by Shokat et al., “A membrane capture assay for lipid kinase activity.” Nat. Protoc. 2007; 2(10):2459-66.

Series [2] addresses PI3KC2B (Homo sapiens, UniProt O00750). The series is described as follows: PI3KC2B kinase assay. The class given is biochemical. How it is done: as §2
Series [3] has as its system HCV genotype 2a. The series is described as follows: microbe, parasite or virus in culture. Format: cell-based. The settings on record: Hepatitis C virus, Huh7.5, read-out: HCV2a EC50.
Series [4] concerns HRV. Briefly: Rhinovirus antiviral assay. The class given is cell-based. As to conditions: Human rhinovirus sp.
Series [5] has as its target T2, PI4KIIIB (Bos taurus, UniProt O02810).
T2 construct: made in house; host or cells: COS-7 cells, transient transfection, anti-HA immunoprecipitate on protein G Sepharose beads
The series is described as follows: PI4KIIIB kinase assay. Format: biochemical, bovine. How it is done:
as §1, with “2007; 2 (10):2459-66.” left out, “for” for “for the assay. Assays of HsVps34 were performed as described in Knight et al, except that the final assay buffer composition used was changed to 20 mM HEPES 7.5, 100 mM NaCl, 3 mM MgCl, 1 mg/mL PI and 44 nM hvps34 was used in”, “Lysates were collected by scraping and after 15 min they were centrifuged at 13,000 rpm for 10 min.” left out, “The Sepharose beads in the lysate were washed twice with 150 mM NaCl in RIPA buffer, twice with RIPA buffer and once with kinase buffer (50 mM Tris/HCl, pH 7.5, 20 mM MgCl2, 1 mM EGTA, 1 mM PtdIns, 0.4% Triton X-100, 0.5 mg/mL BSA) and finally the beads were resuspended in 200 μL kinase buffer.” left out
PI-kinase assay: Compounds are tested in C.1.1. PI kinase assays as described by Shokat et al., “A membrane capture assay for lipid kinase activity.” Nat. Protoc.

The target in series [6] is T3, PI4KIIIA (Homo sapiens, UniProt P42356).
T3 construct: made in house; host or cells: COS-7 cells, transient transfection, anti-HA immunoprecipitate on protein G Sepharose beads
Briefly: PI4KIIIA kinase assay. Format: biochemical. How it is done:
as §1, with “Reactions were terminated by addition of 3 ml of CHCl3:CH3OH:HCl (200:100:0.75) followed by 0.6 ml of 0.6N HCl to induce phase separation. The mixtures were vortexed, centrifuged at 2000 rpm for 2 min and the upper phase was discarded. To the lower phase was added 1.5 ml of CHCl3:CH3OH:0.6N HCl (3:48:47) and the mixture vortexed and centrifuged at 2000 rpm for 2 min. The lower phase was then transferred to counting vials and evaporated.” left out, “(Perkin-Elmer). […]” for “(Perkin-Elmer).”

For series [7], the target named is T4, PI3K p110a (Homo sapiens, UniProt P42336).
T4 construct: purchased Millipore
Briefly: PI3K p110a kinase assay. The class given is biochemical. How it is done: In the assays described here, p110α-p85 complex and p110γ were acquired from Millipore. Assays were performed with Lα-phosphatidylinositol (Avanti) as described in Knight et al. Nat Protoc. […] Inhibitor series were prepared 10% DMSO as 5× stocks for the assay. […] COS-7 cells were cultured in 10 cm dishes and transfected at 70% confluence with 10 μg of plasmid DNA (HA-tagged bovine PI4KIIIβ, HA-tagged human PI4KIIIα) using Lipofectamine 2000 and 5 ml Opti-MEM following the manufacturer's instructions. After 5 hours the transfection medium was replaced with 10 ml complete DMEM. 36 hrs post transfection, cells were washed once with 5 ml PBS (pH 7.4) and lysed in 1 ml of lysis buffer (1) on ice. […] To the lysates was added 200 μl of protein G Sepharose 4 fast flow beads that were prewashed with PBS and lysis buffer and 2 μg of anti-HA antibody. The tubes were then incubated overnight at 4 degrees C. in a tube rotator. […] Kinase reactions were run in a mixture of 45 μL of PI buffer (1 mM PI in kinase buffer), 10 μL of immunoprecipitated beads, 2 µL of inhibitors (dissolved and diluted in DMSO) or DMSO and 5 μL of [γ-^32P]-ATP (1 mM and 2 μCi/tube). […] Samples were counted in a scintillation beta counter after adding 5 ml of Instafluor (Perkin-Elmer). […]

In series [8] the test system is PI(4)P and PI(4,5)P2 pools in Huh7.5 cells. Briefly: Immunofluorescence of intracellular PI-4 and PIP2 pools in Huh7.5 cells. Format: cell-based. How it is done: To further confirm its mechanism of action the effect of (1) on PI-4 levels was determined in cells using immunofluorescence to monitor the intracellular localized pools of PI-4. The effect of (1) on intracellular pools of PIP2 was tested, which were predicted to be similarly sensitive to inhibition using (1). […] Uninfected Huh7.5 cells or HCV-infected Huh7.5 cells were used.

Setting [9] is: immunofluorescence, 250 nM, 500 nM or 1 uM, uninfected or HCV-infected Huh7.5 cells.

Entries after “also recorded” stand apart in the source; their conditions may differ.

Sequence of PI3KC2B (O00750 whole entry): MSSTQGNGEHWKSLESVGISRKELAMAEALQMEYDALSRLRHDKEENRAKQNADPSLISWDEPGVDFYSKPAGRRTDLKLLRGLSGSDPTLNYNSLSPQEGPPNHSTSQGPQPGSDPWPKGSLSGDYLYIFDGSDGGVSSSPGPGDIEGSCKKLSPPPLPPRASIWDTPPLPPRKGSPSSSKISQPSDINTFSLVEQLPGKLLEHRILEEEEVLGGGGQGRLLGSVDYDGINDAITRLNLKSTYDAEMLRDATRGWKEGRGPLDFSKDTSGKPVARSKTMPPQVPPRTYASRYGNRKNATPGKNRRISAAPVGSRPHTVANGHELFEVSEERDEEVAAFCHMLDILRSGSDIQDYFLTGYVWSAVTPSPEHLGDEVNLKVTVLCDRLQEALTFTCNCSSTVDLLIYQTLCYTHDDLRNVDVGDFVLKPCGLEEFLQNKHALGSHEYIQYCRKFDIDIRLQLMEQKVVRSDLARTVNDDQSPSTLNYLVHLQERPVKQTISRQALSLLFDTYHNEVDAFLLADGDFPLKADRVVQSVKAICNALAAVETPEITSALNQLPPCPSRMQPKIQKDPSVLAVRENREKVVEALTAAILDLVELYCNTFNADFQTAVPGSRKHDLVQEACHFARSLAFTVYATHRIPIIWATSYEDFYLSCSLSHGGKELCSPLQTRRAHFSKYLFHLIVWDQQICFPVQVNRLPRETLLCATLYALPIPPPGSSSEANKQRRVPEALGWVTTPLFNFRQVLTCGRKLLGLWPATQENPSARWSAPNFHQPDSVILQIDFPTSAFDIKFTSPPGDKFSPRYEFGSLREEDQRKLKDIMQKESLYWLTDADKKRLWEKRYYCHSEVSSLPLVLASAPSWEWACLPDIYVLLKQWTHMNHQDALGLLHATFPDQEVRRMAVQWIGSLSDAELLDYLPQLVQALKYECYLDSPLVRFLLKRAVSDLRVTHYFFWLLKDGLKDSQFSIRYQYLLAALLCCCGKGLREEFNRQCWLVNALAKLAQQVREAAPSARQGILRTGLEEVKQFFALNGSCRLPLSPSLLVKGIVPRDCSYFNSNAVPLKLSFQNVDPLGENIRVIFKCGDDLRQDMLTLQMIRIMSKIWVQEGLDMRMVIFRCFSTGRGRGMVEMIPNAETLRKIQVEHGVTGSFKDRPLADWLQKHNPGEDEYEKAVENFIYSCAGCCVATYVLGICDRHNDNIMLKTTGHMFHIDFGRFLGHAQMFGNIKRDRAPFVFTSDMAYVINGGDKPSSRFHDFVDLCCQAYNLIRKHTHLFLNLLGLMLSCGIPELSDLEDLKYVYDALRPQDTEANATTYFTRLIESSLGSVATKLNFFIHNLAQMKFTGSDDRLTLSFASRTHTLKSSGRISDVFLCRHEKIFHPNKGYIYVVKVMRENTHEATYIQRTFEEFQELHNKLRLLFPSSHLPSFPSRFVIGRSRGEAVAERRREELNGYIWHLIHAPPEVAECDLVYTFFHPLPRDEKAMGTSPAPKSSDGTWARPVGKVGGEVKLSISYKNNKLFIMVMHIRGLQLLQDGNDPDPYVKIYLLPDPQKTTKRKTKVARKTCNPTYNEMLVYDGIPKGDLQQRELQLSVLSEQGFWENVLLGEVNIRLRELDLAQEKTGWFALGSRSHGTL
T1 sequence (P48736 whole entry): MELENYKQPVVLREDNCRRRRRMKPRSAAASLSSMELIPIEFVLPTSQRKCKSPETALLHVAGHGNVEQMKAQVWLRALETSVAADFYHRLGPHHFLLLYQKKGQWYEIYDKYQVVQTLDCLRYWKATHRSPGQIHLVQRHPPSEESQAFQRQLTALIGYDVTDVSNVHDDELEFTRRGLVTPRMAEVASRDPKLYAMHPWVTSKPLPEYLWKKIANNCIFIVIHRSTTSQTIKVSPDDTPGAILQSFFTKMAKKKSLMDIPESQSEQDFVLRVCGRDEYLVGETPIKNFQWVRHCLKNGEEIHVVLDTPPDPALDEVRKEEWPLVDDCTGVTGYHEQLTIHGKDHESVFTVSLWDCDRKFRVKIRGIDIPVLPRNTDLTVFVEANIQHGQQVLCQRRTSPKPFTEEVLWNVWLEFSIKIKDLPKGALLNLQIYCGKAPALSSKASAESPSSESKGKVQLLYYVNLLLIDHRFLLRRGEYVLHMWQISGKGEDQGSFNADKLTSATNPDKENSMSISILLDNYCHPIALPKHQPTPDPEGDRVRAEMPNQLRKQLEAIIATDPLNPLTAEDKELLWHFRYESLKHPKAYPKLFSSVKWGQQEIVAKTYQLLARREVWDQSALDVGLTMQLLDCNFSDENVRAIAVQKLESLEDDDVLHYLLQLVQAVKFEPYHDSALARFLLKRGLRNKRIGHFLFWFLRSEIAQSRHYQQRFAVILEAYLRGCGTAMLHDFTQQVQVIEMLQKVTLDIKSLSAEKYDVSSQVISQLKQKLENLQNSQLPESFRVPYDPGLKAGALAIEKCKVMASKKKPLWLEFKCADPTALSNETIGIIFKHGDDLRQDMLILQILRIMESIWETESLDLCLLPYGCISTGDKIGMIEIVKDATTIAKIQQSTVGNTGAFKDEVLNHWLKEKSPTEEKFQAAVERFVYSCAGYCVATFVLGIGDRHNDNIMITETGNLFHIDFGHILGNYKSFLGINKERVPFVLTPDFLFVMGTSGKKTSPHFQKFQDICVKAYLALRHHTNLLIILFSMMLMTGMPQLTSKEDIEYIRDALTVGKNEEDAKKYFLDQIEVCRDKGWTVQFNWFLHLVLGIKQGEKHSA
T2 sequence (O02810 whole entry): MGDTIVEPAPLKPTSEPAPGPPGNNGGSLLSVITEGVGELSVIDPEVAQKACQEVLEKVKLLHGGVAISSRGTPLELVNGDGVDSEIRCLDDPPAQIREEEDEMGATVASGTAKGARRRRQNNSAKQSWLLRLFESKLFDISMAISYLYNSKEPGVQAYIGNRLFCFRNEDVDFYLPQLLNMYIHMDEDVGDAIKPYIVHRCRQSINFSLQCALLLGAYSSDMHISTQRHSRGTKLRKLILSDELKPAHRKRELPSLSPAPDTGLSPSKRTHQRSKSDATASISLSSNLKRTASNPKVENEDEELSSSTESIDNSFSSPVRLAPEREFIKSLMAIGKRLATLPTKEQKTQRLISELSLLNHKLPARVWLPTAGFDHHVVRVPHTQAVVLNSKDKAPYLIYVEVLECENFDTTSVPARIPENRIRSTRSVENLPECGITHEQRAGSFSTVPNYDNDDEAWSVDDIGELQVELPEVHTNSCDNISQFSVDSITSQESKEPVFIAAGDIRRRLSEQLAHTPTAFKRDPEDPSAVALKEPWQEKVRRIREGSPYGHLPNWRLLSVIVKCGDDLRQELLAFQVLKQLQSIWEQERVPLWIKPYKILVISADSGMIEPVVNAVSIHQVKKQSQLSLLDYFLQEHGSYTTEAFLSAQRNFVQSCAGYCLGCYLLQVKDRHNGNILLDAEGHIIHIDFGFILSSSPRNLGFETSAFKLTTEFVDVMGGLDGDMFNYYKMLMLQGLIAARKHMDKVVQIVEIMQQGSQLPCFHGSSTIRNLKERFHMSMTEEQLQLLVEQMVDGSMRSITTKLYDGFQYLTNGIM

A word on the IC50: it is the concentration needed to halve the response being measured. A low value points to greater potency. In the case of `COc1ccc(-c2sc(NC(=O)CC3CCOCC3)nc2C)cc1S(=O)(=O)Nc1ccc(O)cc1C` [Compound S-231, N-[5-[3-[(4-hydroxy-2-methyl-phenyl)sulfamoyl]-4-methoxy-phenyl]-4-methyl-thiazol-2-yl]-2-tetrahydropyran-4-yl-acetamide], the IC50 in series [1] and in series [2] was greater than 10000 nM throughout.
The EC50 is the concentration needed to bring the measured effect to its halfway point. `COc1ccc(-c2sc(NC(=O)CC3CCCC3)nc2C)cc1S(=O)(=O)Nc1ccc(O)cc1` [Compound S-1, 2-cyclopentyl-N-[5-[3-[(4-hydroxyphenyl)sulfamoyl]-4-methoxy-phenyl]-4-methyl-thiazol-2-yl]acetamide]: the IC50 in series [1] and in series [2] was greater than 10000 nM throughout. The EC50 in series [3] was 1 to 100 nM; in series [4], less than 1 nM.
Turning to `COc1ccc(NS(=O)(=O)c2cc(-c3sc(NC4CCCCC4)nc3C)ccc2OC)c(C)c1` [Compound S-66, 5-[2-(cyclohexylamino)-4-methyl-thiazol-5-yl]-2-methoxy-N-(4-methoxy-2-methyl-phenyl)benzenesulfonamide; 2,2,2-trifluoroacetic acid], the EC50 in series [3] was 1000 to 10000 nM; in series [4], less than 1 nM.
Regarding `COc1ccc(-c2sc(NCC3CCCCC3)nc2C)cc1S(=O)(=O)NC1CCCNC1` (stereo not shown) [Compound S-115, 5-[2-(cyclohexylmethylamino)-4-methyl-thiazol-5-yl]-2-methoxy-N-(3-piperidyl)benzenesulfonamide], in series [5], the IC50 is less than 100 nM. In addition, the EC50 in series [3] is 100 to 1000 nM; in series [4] it was less than 1 nM.
As to `COc1ncc(-c2sc(NC(=O)CC3CCOCC3)nc2C)cc1S(=O)(=O)Nc1ccc(O)cc1` [Compound S-261], in series [1], the IC50 was in the range of 100 to 1000 nM. Also, the EC50 was 1 to 100 nM in series [3] and 1000 to 10000 nM in series [4].
With `COc1ccc(-c2sc(N[C@H](C)C3CCCCC3)nc2C)cc1S(=O)(=O)NC1CCCNC1` (stereo partly drawn) [Compound S-148, 5-[2-[[(1R)-1-cyclohexylethyl]amino]-4-methyl-thiazol-5-yl]-2-methoxy-N-(3-piperidyl)benzenesulfonamide], the IC50 in series [6] is 100 to 1000 nM; in series [5], less than 100 nM; in series [7], greater than 10000 nM; in series [1], greater than 10000 nM.
Take `COc1ccc(-c2sc(NC(=O)C3CCCC3)nc2C)cc1S(=O)(=O)Nc1ccc(O)cc1` [Compound 1]: the “Effect on the ER (calnexin co-staining)” value in series [8] (control for non-specific effects) is on record as “absence of any detectable effects on the ER”. In addition, in series [8] (setting [9]), the “Effect on intracellular PI-4 (PI(4)P) levels” value is listed as “dose-dependent decrease; also recorded: decreases” and the “Effect on intracellular PIP2 (PI(4,5)P2) levels” value is “dose-dependent decrease; also recorded: decreases”.
In the case of `COc1ccc(-c2sc(NC(=O)CCC3CCCC3)nc2C)cc1S(=O)(=O)NC1CCNCC1` [Compound S-160, 3-cyclopentyl-N-[5-[4-methoxy-3-(4-piperidylsulfamoyl)phenyl]-4-methyl-thiazol-2-yl]propanamide], the IC50 in series [1] and in series [2] was greater than 10000 nM throughout.
In series [1], `COc1ncc(-c2sc(NC(=O)CC3CCOCC3)nc2C)cc1S(=O)(=O)Nc1ccc(F)cc1F` [Compound S-260] displayed an IC50 greater than 10000 nM. The results for the EC50 in series [3] and in series [4] were 100 to 1000 nM and 1000 to 10000 nM, respectively.
As for `COc1ccc(-c2sc(NC(C)(C)C)nc2C)cc1S(=O)(=O)N[C@H]1CC[C@H](O)CC1` [Compound S-216, 5-[2-(tert-butylamino)-4-methyl-thiazol-5-yl]-N-(4-hydroxycyclohexyl)-2-methoxy-benzenesulfonamide], the IC50 in series [1] and in series [2] was greater than 10000 nM in each case.
In turn, `COc1ccc(-c2sc(N[C@H](C)C3CCCCC3)nc2C)cc1S(=O)(=O)N[C@H]1CC[C@H](O)CC1` [Compound S-193, 5-[2-[[(1R)-1-cyclohexylethyl]amino]-4-methyl-thiazol-5-yl]-N-(4-hydroxycyclohexyl)-2-methoxy-benzenesulfonamide] came in with an IC50 in series [2] greater than 10000 nM.
As for `COc1ccc(-c2sc(NC(C)C)nc2C)cc1S(=O)(=O)N[C@H]1CC[C@H](O)CC1` [Compound S-215, N-(4-hydroxycyclohexyl)-5-[2-(isopropylamino)-4-methyl-thiazol-5-yl]-2-methoxy-benzenesulfonamide], the IC50 in series [1] and in series [2] was greater than 10000 nM in each case.

The values are drawn from patent publication US10428060B2, “PI-kinase inhibitors with anti-infective activity” (The Board of Trustees of the Leland Stanford Junior …, priority 2011, dated 2019).
